Tested on: CD4-positive T-cells
Test: In vitro T-cell priming with peptide-pulsed autologous DCs, intracellular IFNγ staining of CD4-positive T-cells
Assay type: cell-based, human
Settings: for CD4+ T-cell IFNγ response to peptide: donors 1, 2 and 3, positive = more than two-fold over negative controls
Method: Maturation of DCs: DCs were prepared using blood from healthy donors. Briefly, PBMCs were isolated using standard gradient centrifugation (Lymphocyte Separation Medium, PAA Laboratories GmbH, Pasching, Austria) and plated at a density of 7×10^6 cells/ml in X-Vivo 15 medium. After 2 hours at 37° C., non-adherent cells were removed and adherent monocytes cultured for 6 days in X-Vivo medium with 100 ng/ml GM-CSF and 40 ng/ml IL-4 (AL-ImmunoTools, Friesoythe, Germany). On day 7, immature DCs were activated with 10 ng/ml TNF-α (R&D Systems, Wiesbaden, Germany) and 20 μg/ml poly(IC) (Sigma Aldrich, Steinheim, Germany) for 3 days.
Generation of antigen-specific CD4-positive T-cells: 10^6 PBMCs per well were stimulated with 2×10^5 peptide pulsed (5 μg/ml) autologous DCs. Cells were incubated in 96-well plates (7 wells per donor and per peptide) with T-cell medium: supplemented RPMI 1640 in the presence of 10 ng/ml IL-12 (Promocell, Heidelberg, Germany). After 3 to 4 days of co-incubation at 37° C., fresh medium with 80 U/ml IL-2 (Proleukin, Chiron Corporation, Emeryville, Calif., USA) and 5 ng/ml IL-7 (Promocell) was added. Restimulations were done with autologous PBMCs plus peptide every 6 to 8 days.
Intracellular IFNγ staining: After 3 and 4 rounds of stimulation, PBMCs were thawed, washed twice in X-Vivo 15 medium, resuspended at 10^7 cells/ml in T-cell medium and cultured overnight. On the next day, PBMCs, pulsed with 5 μg/ml peptide, were incubated with effector cells in a ratio of 1:1 for 6 h. Golgi-Stop (Becton Dickinson, Heidelberg, Germany) was added for the final 4 h of incubation.
Cells were analyzed using a Cytofix/Cytoperm Plus kit (Becton Dickinson) and CD4-FITC-(Immunotools), IFNγ-PE- and CD8-PerCP clone SK1-antibodies (Becton Dickinson). For negative controls, cells of seven wells were pooled and incubated either with irrelevant peptide or without peptide, respectively. Stimulation with PMA/Ionomycin was used for positive control. Cells were analyzed on a three-color FACSCalibur (Becton Dickinson).
To generate antigen-specific CD4-positive T-cells and to test the peptides for promiscuous binding, PBMCs of 4 healthy donors with different HLA-DR alleles (FIG. 2), one of them carrying DRB1*1101, were stimulated using peptide-pulsed autologous DCs. […] As a read-out system for the generation of antigen-specific CD4-positive T-cells, IFNγ levels were assessed by flow cytometry. T-cells were analyzed after the third and fourth weekly stimulation by intracellular IFNγ staining plus CD4-FITC and CD8-PerCP staining to determine the percentage of IFNγ-producing cells in specific T-cell subpopulations. […]

Sequence	maximal frequency of IFNγ producing CD4+ T-cells (donor 2)	maximal frequency of IFNγ producing CD4+ T-cells (donor 3)	CD4+ T-cell IFNγ response to peptide
HSKIIIIKKGHAK (listed as Homo sapiens) [SEQ ID NO: 48]	0.05%	0.07%	–
NPPSMVAAGSVVAAV (listed as Homo sapiens) [SEQ ID NO: 49]	–	–	showed IFNγ responses
SQDDIKGIQKLYGKRS [SEQ ID NO: 1]	–	–	showed CD4^+ T-cells reactive

— patent US8258260B2, “Tumor-associated peptides binding promiscuously to human leukocyte antigen (HLA) class II molecules” (Immatics Biotechnologies GmbH, priority 2005, dated 2012)
